Common to all, as to assay type: physicochemical
A short description of data set [1]: USP II basket dissolution of piroxicam/PVP powders in 0.1N hydrochloric acid. The settings on record: 20 mg dose, 37° C., 50 rpm, end of the 4 h interval, FIG. 8. The method, then:
(§1) The dissolution rate was analysed using standard USP II dissolution apparatus using the basket assembly dissolution vessels. Standard 20 mg dose powders were investigated to mimic a patient dose, with dissolution conditions maintained at 37° C. and the basket apparatus rotated at 50 rpm in 0.1N hydrochloric acid. Powders were placed in the basket and submerged in to the dissolution apparatus and ran over 4 h. Samples were taken at predetermined time intervals, with each sample volume replaced with the same amount of fresh dissolution media to maintain sink conditions. The samples were filtered appropriately and analysed for drug content using HPLC apparatus at each of the time points. All results were taken in triplicate, and are represented in FIG. 8.

Data set [2] in a line: USP II basket dissolution of flucloxacillin sodium/polymer powders in pH 6.8 phosphate buffer. The settings on record: 250 mg dose, 37° C., 50 rpm, 60 mins, FIG. 13. The method, then: as §1, with “250” for “20”, “pH 6.8 phosphate buffer.” for “0.1N hydrochloric acid.”, “60 mins.” for “4 h.”, “and are represented in FIG. 8.” left out
The nature of data set [3]: USP II basket dissolution of carbamazepine/PVP powders in distilled water. The conditions noted are these: 200 mg dose, 37° C., 50 rpm, over the 4 h time period, FIG. 7. The method, then: as §1, with “200” for “20”, “distilled water.” for “0.1N hydrochloric acid.”, “7.” for “8.”
Data set [4] is described as follows: Dissolution of carbamazepine dry coated with micronized sodium lauryl sulphate (FIG. 10).
Data set [5] is described as follows: USP II basket dissolution of phenytoin/PVP powders in distilled water. The settings on record: 200 mg dose, 37° C., 50 rpm, 4 h, FIG. 9. The method, then:
as §1, with “200” for “20”, “distilled water.” for “0.1N hydrochloric acid.”, “9.” for “8.”

`CN1C(C(=O)Nc2ccccn2)=C(O)c2ccccc2S1(=O)=O` [control piroxicam, piroxicam]: in data set [1], the drug release is on record as 29.7%. Take `Cc1onc(-c2c(F)cccc2Cl)c1C(=O)N[C@@H]1C(=O)N2[C@@H]1SC(C)(C)[C@@H]2C(=O)O` [flucloxacillin sodium]: the “release of flucloxacillin sodium” value in data set [2] is on record as “full release within a minute”. As to `NC(=O)N1c2ccccc2C=Cc2ccccc21` [micronized carbamazepine, carbamazepine], the drug release result in data set [3] was “very poor release”. On to `NC(=O)N1c2ccccc2C=Cc2ccccc21` [off the shelf carbamazepine (CBZ), carbamazepine], for which the drug release result in data set [4] is given as “around 38%”. Molecule `O=C1NC(=O)C(c2ccccc2)(c2ccccc2)N1` [phenytoin alone, phenytoin] displayed a release in data set [5] of 4.7%.

The values above are taken from patent US11766649B2, “Coating method” (ASTON PARTICLE TECHNOLOGIES LIMITED, priority 2017, dated 2023).
